Patent US20250099684A1, “HYDROGEN PEROXIDE SOLUTION-PREFILLED SYRINGE WITH EXCELLENT HYDROGEN PEROXIDE PRESERVATION DUE TO SILICONE OIL INCLUDED IN OIL COMPOSITION” (KORTUC Inc., priority 2019, published 2025)
Like-named read-outs stand apart in the source and are kept apart here.

Conditions: sealed, stored at 60° C. for 4 weeks, Oxydol "KENEI" 2.5 to 3.5% (w/v) hydrogen peroxide

SMILES: OO [hydrogen peroxide]
- residual ratio of hydrogen peroxide (glass container coated with the silicone oil (Dow Corning 360 Medical Fluid, 12,500 cSt)): ≥ 78%
- residual ratio of hydrogen peroxide (glass container not coated with the silicone oil): about 70%
